Values after ≈ are worked out from the molar mass of the structure shown. Active and inactive are the calls of the source. The rule behind the calls is not given here.
What was measured:
[1] = AUC (0 to t) in female Sprague-Dawley rat at 20 mg/kg, po measured upto 24 hrs by LC-MS analysis; assay type: ADME, organism-based; conditions: in vivo
[2] = molecular target: T1, Enoyl-[acyl-carrier-protein] reductase [NADPH] FabI (Staphylococcus aureus, UniProt Q6GI75); test: Inhibition of N-terminal his 6 tagged Staphylococcus aureus Fabi (1 to […] residues) expressed in Escherichia coli BL21 incubated for 30 mins in presence of NADPH by fluorescence based microplate reader analysis
T1 sequence (Q6GI75 whole entry): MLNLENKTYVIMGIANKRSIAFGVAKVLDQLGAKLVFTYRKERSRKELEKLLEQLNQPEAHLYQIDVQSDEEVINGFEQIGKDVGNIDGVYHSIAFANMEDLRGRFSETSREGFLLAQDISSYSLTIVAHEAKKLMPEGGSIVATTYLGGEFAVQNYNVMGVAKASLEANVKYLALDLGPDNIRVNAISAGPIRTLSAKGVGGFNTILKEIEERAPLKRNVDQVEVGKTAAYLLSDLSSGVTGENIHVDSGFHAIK

[3] = tested on: Staphylococcus aureus; test: Antimicrobial activity against methicillin-susceptible Staphylococcus aureus ATCC29213 measured after 24 hrs by CLSI protocol based microdilution method; assay type: functional
[4] = Acute toxicity in female BALB/c mouse assessed as effect on ALT level in serum at 800 mg/kg, po measured after 14 days; assay type: organism-based; conditions: in vivo, 336 h, time 14 day
[5] = Acute toxicity in female BALB/c mouse assessed as effect on kidney at 800 mg/kg, po measured after 14 days by H and E staining based analysis; assay type: organism-based; conditions: in vivo, 336 h, time 14 day
[6] = Inhibition of N-terminal his 6 tagged Escherichia coli Fabi (1 to 789 residues) expressed in Escherichia coli BL21 incubated for 30 mins in presence of NADH by fluorescence based microplate reader analysis
[7] = tested on: Staphylococcus aureus; test: Antimicrobial activity against […] Staphylococcus aureus USA300 measured after 24 hrs by CLSI protocol based microdilution method; assay type: functional
[8] = Hemolytic activity in sheep erythrocytes assessed as hemolysis at 64 ug/ml incubated for 1 hr by microplate reader based analysis relative to control; assay type: toxicity, cell-based, Ovis aries, Erythrocyte; conditions: at 64 µg/mL, read-out: Activity
[9] = tested on: Pseudomonas aeruginosa; test: Antimicrobial activity against Pseudomonas aeruginosa PAO1 measured after 24 hrs by CLSI protocol based microdilution method; assay type: functional
[10] = tested on: Cell membrane; test: Induction of cell membrane permeability in methicillin-resistant Staphylococcus aureus ATCC33591 assessed as fold increase in fluorescence intensity at 0.5 times MIC measured after 30 mins by Annexin V-FITC staining based analysis; assay type: cell membranes
[11] = Tmax in female Sprague-Dawley rat at 20 mg/kg, po measured upto 24 hrs by LC-MS analysis; assay type: ADME, organism-based; conditions: in vivo
[12] = tested on: Staphylococcus aureus; test: Antimicrobial activity against […] Staphylococcus aureus ATCC33591 measured after 24 hrs by CLSI protocol based microdilution method; assay type: functional
[13] = Clearance in female Sprague-Dawley rat at 20 mg/kg, po measured upto 24 hrs by LC-MS analysis; assay type: ADME, organism-based; conditions: in vivo
[14] = Metabolic stability in human liver microsomes assessed as intrinsic clearance at 1 uM measured upto 120 mins in presence of NADPH by LC-MS analysis; assay type: ADME, Microsome; conditions: read-out: CLH
[15] = Drug concentration in BALB/c mouse plasma at 400 mg/kg, po measured after 1 hr by LC-MS analysis; assay type: ADME, organism-based
[16] = Acute toxicity in female BALB/c mouse assessed as abnormal behaviour at 800 mg/kg, po measured after 14 days; assay type: organism-based; conditions: in vivo, 336 h, time 14 day
[17] = tested on: Cell membrane; test: Induction of cell membrane permeability in methicillin-resistant Staphylococcus aureus ATCC33591 assessed as increase in fluorescence measured after 30 mins by Annexin V-FITC staining based analysis; assay type: cell membranes
[18] = tested on: Staphylococcus aureus; test: Antimicrobial activity against […] Staphylococcus aureus NRS271 measured after 24 hrs by CLSI protocol based microdilution method; assay type: functional
[19] = tested on: Enterococcus faecalis; test: Antimicrobial activity against Enterococcus faecalis ATCC29212 measured after 24 hrs by CLSI protocol based microdilution method; assay type: functional
[20] = Metabolic stability in human liver microsomes assessed as half life at 1 uM measured upto 120 mins in presence of NADPH by LC-MS analysis; assay type: ADME, Microsome
[21] = Inhibition of N-terminal his 6 tagged Acinetobacter baumannii Fabi (1 to 804 residues) expressed in Escherichia coli BL21 incubated for 30 mins in presence of NADH by fluorescence based microplate reader analysis
[22] = tested on: Acinetobacter baumannii; test: Antimicrobial activity against Acinetobacter baumannii ATCC19606 measured after 24 hrs by CLSI protocol based microdilution method; assay type: functional
[23] = Cytotoxicity against HEK293 cells assessed as survival rate at 400 uM measured after 48 hrs by CCK-8 method relative to control; assay type: toxicity, cell-based; conditions: human, read-out: Survival
[24] = Acute toxicity in female BALB/c mouse assessed as effect on AST level in serum at 800 mg/kg, po measured after 14 days; assay type: organism-based; conditions: in vivo, 336 h, time 14 day
[25] = Acute toxicity in female BALB/c mouse assessed as effect on ALB level in serum at 800 mg/kg, po measured after 14 days; assay type: organism-based; conditions: in vivo, 336 h, time 14 day
[26] = tested on: Staphylococcus aureus; test: Antimicrobial activity against wild type Staphylococcus aureus RN4220 measured after 24 hrs by CLSI protocol based microdilution method; assay type: functional
[27] = tested on: Staphylococcus aureus; test: Antimicrobial activity against […] Staphylococcus aureus ATCC33591 assessed as reduction in lipid content at 8 times MIC measured after 4 hrs by microplate reader based analysis; assay type: functional, organism-based
[28] = tested on: Staphylococcus aureus; test: Bactericidal activity against […] Staphylococcus aureus ATCC33591 assessed as reduction in bacterial count at 8 times MIC measured within 8 to 12 hrs by time-kill assay; assay type: functional, organism-based; conditions: time 8-12 hrs
[29] = Hemolytic activity in sheep erythrocytes assessed as hemolysis incubated for 1 hr by microplate reader based analysis; assay type: toxicity, cell-based, Ovis aries, Erythrocyte
[30] = Drug concentration in BALB/c mouse plasma at 800 mg/kg, po measured after 1 hr by LC-MS analysis; assay type: ADME, organism-based
[31] = tested on: Cell membrane; test: Induction of cell membrane damage in methicillin-resistant Staphylococcus aureus ATCC33591 assessed as appearance of inward wrinkling in cell surface at 1 times MIC measured after 30 mins by TEM analysis; assay type: cell membranes
[32] = Acute toxicity in female BALB/c mouse assessed as effect on lung at 800 mg/kg, po measured after 14 days by H and E staining based analysis; assay type: organism-based; conditions: in vivo, 336 h, time 14 day
[33] = tested on: Staphylococcus aureus; test: Bactericidal activity against […] Staphylococcus aureus ATCC33591 assessed as reduction in bacterial count at 4 times MIC measured within 24 hrs by time-kill assay; assay type: functional, organism-based
[34] = Cytotoxicity against HEK293 cells assessed as survival rate at 800 uM measured after 48 hrs by CCK-8 method relative to control; assay type: toxicity, cell-based; conditions: human, read-out: Survival
[35] = tested on: Escherichia coli; test: Antimicrobial activity against Escherichia coli ATCC25922 measured after 24 hrs by CLSI protocol based microdilution method; assay type: functional
[36] = tested on: Staphylococcus aureus; test: Antimicrobial activity against Staphylococcus aureus measured after 24 hrs by CLSI protocol based microdilution method; assay type: functional
[37] = tested on: Staphylococcus aureus; test: Antimicrobial activity against […] Staphylococcus aureus ATCC43300 measured after 24 hrs by CLSI protocol based microdilution method; assay type: functional

Structure (SMILES) | AUCt [1] [ng·h/mL] | IC50 [2] [nM] | MIC [3] [µg/mL] | Activity [4] | Activity [5] | IC50 [6] [nM] | MIC [7] [µg/mL] | hemolysis at 1 h, 64 ug/ml [8] [%] | MIC [9] [µg/mL] | fold change (FC) [10] | Tmax [11] [min] | MIC [12] [µg/mL] | CL/F [13] [mL/min/kg] | CLint scaled at 1 µM [14] [mL/min/kg] | concentration at 1 h [15] [ng/mL] | Activity [16] | Activity [17] | MIC [18] [µg/mL] | MIC [19] [µg/mL] | half-life at 1 µM [20] [min] | other results
COc1c(Br)cccc1N1CC(c2nc3ccccc3n2C)CC1=O (centres undefined) | 3127 | 199 | 1 (≈ 2.5 µM) | Non-Toxic | Non-Toxic | 35.9 | 1 (≈ 2.5 µM) | 1.9 | > 32 | 1.9 | 30 | 1 (≈ 2.5 µM) | 86.7 | 45.4 | 18100 | Non-Toxic | Active | 2 (≈ 5 µM) | > 32 | 38.3 | IC50 [21]: 266 nM; MIC [22]: > 32 µg/mL; viability at 48 h, 400 µM [23]: > 70%; Activity [24]: Non-Toxic; Activity [25]: Non-Toxic; MIC [26]: 2 µg/mL (≈ 5 µM); Activity [27]: Active; Activity [28]: Below limit of detection; HC50 at 1 h [29]: > 256 µg/mL; concentration at 1 h [30]: 32700 ng/mL; Activity [31]: Active; Activity [32]: Non-Toxic; Activity [33]: Below limit of detection; viability at 48 h, 800 µM [34]: > 65%; MIC [35]: > 32 µg/mL; MIC [36]: 1 µg/mL (≈ 2.5 µM); MIC [37]: 2 µg/mL (≈ 5 µM)
Cc1c(Br)cccc1N1CC(c2nc3ccccc3n2C)CC1=O (centres undefined) | 11149.1 | 174 | 1 (≈ 2.6 µM) | Non-Toxic | Non-Toxic | 35.9 | 1 (≈ 2.6 µM) | 3.1 | > 32 | 2.1 | 60 | 1 (≈ 2.6 µM) | 26.7 | 27.3 | 24000 | Non-Toxic | Active | 2 (≈ 5.2 µM) | > 32 | 63.6 | IC50 [21]: 266 nM; MIC [22]: > 32 µg/mL; viability at 48 h, 400 µM [23]: > 70%; Activity [24]: Non-Toxic; Activity [25]: Non-Toxic; MIC [26]: 2 µg/mL (≈ 5.2 µM); Activity [27]: Active; Activity [28]: Below limit of detection; HC50 at 1 h [29]: > 256 µg/mL; concentration at 1 h [30]: 53600 ng/mL; Activity [31]: Active; Activity [32]: Non-Toxic; Activity [33]: Below limit of detection; viability at 48 h, 800 µM [34]: > 75%; MIC [35]: > 32 µg/mL; MIC [36]: 1 µg/mL (≈ 2.6 µM); MIC [37]: 1 µg/mL (≈ 2.6 µM)

Reference: ChEMBL document CHEMBL5500393, “Discovery and Optimization of Novel SaFabI Inhibitors as Specific Therapeutic Agents for MRSA Infection” (J Med Chem, 2024)
